This is an account of results in patent US4528296A, “Derivatives of aminopyridinecarboxylic acids and pharmaceutical compositions containing them” (Simes, Societa Italiana Medicinalle Sintetici, priority 1982, dated 1985).

Series [1] has as its system mice. The series is described as follows: Acute toxicity in mice after oral administration. It counts as in vivo. An excerpt: (§1) The acute toxicity of compounds of this invention has been evaluated after oral administration in mice
The target of series [2] is T1, enkephalinase (Rattus norvegicus, UniProt P07861).
T1 construct: enzymatic preparation extracted from the particulate fraction of striata of rats; from tissue; host or cells: rat striatum, particulate fraction purified on discontinuous sucrose gradient
T1 sequence (P07861 1-750): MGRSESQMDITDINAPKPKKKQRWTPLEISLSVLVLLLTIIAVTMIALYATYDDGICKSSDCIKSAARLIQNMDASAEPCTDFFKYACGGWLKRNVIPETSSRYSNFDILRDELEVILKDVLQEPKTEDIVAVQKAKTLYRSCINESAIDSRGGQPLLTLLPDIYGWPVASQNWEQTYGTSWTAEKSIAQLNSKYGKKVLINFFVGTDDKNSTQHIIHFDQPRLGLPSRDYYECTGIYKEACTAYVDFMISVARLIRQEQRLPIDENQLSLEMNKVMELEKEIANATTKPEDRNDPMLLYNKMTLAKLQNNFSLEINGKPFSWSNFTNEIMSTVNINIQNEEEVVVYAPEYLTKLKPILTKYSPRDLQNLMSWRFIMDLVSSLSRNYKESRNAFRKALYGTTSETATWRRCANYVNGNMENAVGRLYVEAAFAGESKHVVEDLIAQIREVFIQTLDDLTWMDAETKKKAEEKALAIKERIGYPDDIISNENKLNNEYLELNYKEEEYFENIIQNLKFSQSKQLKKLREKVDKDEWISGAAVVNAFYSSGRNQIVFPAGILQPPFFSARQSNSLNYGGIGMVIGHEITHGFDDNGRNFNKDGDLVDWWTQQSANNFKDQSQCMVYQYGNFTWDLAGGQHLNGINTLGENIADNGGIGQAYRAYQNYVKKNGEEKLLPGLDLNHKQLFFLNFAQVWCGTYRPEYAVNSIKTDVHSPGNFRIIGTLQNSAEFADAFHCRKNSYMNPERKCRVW
The series is described as follows: Inhibition of enkephalinase, particulate fraction of rat striata, 3H-Tyr-Leucine-Enkephalin substrate. It counts as biochemical, rats. Conditions: read-out: Drug concentration which inhibits 50% of the enzymatic activities (IC50(M)), Enkephalinase. An excerpt: The evaluation of the inhibitory effect on enkephalinase and on aminopeptidase activity respectively has been made as follows:
(a) enkephalinase: it has been used the enzymatic preparation extracted from the particulate fraction of striata of rats purified on discontinous gradient of sucrose (Blumberg et al., Life Sci., 28, (1981), 301); the evaluation of the enzymatic activity has been made using ^3 H-Tyr-Leucine-Enkephalin as substrate (Vogel and Alstein, FEBS Lett., 80, (1977), 332).

Series [3] concerns the target T2, amino peptidase (Rattus norvegicus, UniProt F1M9V7).
T2 construct: as enzyme source it has been used the soluble fraction of point (a) above; from tissue; host or cells: rat striatum, soluble fraction
T2 sequence (F1M9V7 1-920): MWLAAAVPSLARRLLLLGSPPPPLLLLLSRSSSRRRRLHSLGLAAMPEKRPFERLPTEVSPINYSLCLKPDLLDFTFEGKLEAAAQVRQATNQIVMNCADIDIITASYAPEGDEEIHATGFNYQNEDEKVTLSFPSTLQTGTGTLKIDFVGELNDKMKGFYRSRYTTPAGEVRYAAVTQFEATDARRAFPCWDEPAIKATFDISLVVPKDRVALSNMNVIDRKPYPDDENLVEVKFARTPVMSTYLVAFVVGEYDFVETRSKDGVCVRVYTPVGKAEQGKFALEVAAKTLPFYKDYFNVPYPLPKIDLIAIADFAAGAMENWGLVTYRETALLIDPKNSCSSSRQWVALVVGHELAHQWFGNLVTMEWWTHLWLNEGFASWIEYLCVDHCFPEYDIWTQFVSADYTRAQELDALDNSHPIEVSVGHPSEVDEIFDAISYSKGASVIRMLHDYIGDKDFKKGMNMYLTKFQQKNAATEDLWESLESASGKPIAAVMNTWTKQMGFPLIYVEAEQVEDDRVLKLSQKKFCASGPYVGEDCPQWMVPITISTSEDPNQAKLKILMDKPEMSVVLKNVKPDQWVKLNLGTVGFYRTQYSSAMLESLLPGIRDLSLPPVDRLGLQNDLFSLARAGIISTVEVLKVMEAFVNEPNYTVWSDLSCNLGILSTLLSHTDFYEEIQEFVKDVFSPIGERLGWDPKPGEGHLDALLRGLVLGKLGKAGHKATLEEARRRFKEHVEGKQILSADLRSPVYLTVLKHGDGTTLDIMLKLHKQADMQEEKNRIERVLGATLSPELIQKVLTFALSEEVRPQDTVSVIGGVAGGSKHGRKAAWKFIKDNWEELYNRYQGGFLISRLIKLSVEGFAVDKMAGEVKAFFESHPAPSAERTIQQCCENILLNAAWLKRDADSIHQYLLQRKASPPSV
Description: Inhibition of amino peptidase, soluble fraction of rat striata, 3H-Tyr-Leucine-Enkephalin substrate. Type of series: biochemical, rats. Particulars: read-out: Drug concentration which inhibits 50% of the enzymatic activities (IC50(M)), Amino Peptidase. An excerpt: The evaluation of the inhibitory effect on enkephalinase and on aminopeptidase activity respectively has been made as follows: […]

The target of series [4] is T3, enkephalinase (Mus musculus, UniProt Q61391).
T3 construct: potentiation of the analgesic effect induced in mice by Methionine-Enkephalin; from tissue; host or cells: endogenous enzyme in the brain of living mice (intracerebral administration)
T3 sequence (Q61391 1-750): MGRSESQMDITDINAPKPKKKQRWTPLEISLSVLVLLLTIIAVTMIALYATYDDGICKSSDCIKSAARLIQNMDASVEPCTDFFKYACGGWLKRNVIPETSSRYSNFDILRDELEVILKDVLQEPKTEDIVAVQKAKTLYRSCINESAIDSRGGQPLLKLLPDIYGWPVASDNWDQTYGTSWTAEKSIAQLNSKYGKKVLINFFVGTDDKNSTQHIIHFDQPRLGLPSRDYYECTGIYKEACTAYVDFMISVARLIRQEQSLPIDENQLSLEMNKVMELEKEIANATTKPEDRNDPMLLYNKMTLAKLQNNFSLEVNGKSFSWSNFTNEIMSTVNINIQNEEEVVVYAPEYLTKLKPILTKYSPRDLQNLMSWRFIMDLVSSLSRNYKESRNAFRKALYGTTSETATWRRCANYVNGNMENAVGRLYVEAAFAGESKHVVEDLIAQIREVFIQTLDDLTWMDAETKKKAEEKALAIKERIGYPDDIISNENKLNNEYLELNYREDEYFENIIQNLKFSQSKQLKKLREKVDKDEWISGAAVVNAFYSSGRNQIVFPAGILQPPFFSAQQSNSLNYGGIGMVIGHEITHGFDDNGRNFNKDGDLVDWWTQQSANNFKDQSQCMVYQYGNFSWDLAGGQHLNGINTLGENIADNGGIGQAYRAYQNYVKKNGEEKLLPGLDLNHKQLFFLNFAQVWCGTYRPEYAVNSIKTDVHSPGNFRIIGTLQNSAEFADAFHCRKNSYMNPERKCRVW
The series is described as follows: Potentiation of Met-Enk analgesia in mice, hot plate test, intracerebral administration. Type of series: in vivo. Background: Thermal pain tests record how soon the animal reacts.

Series [5] in a line: Acute toxicity in mice after oral administration. Type of series: in vivo. Conditions: mouse, in vivo.
Description: as §1

The mark [6] stands for this setting: Met-Enk 50 μg/ic + compound 12,5 μg/ic.
Setting [7] is: Met-Enk 50 μg/ic + compound 25 μg/ic.
[8] abbreviates: Met-Enk 50 μg/ic + compound 50 μg/ic.

Consider “2-(2-acetylthiomethyl-propionamido)-picolinic acid [Example 26]”, for which the LD50 (as a rule, the dose at which mortality reaches 50%) in series [1] was determined as 421 mg/kg.

With `CC(C)C[C@H](NC(=O)[C@@H](O)[C@H](N)Cc1ccccc1)C(=O)O` [Bestatin, reference compound], the IC50 is more than 1e-06 M in series [2] and 2e-07 M in series [3].

`C[C@H](CS)C(=O)N1CCC[C@H]1C(=O)O` [Captopril, 1,-(3-mercapto-2-methyl-1-oxopropyl)-L-proline, reference compound]: the IC50 in series [2] and in series [3] was more than 1e-06 M throughout.

For `CC(CS)C(=O)Nc1ccc(C(=O)O)cn1` (stereo not shown) [Example 8, 6-(2-mercaptomethyl-propionamido)-nicotinic acid], the values for the IC50 in series [2] and in series [3] were 5e-07 M and more than 1e-06 M, respectively. Further, the “Latency Time X ± SE (sec)” value in series [4] (setting [6]) is on record as 19,6 ± 2,1 sec.

`COC(=O)c1cncc(NC(=O)C(C)CS)c1` (stereo not shown) [Example 13, methyl 5-(2-mercaptomethyl-propionamido)-nicotinate]: the IC50 in series [2] is 2e-07 M; in series [3], more than 1e-06 M.

For `CC(CS)C(=O)Nc1cncc(C(=O)O)c1` (stereo not shown) [Example 14, 5-(2-mercaptomethyl-propionamido)-nicotinic acid], the values for the IC50 in series [2] and in series [3] were 5e-08 M and more than 1e-06 M, respectively. Moreover, the “Latency Time X ± SE (sec)” value in series [4] (setting [7]) is listed as 27,7 ± 1,5 sec.

Consider `COC(=O)c1cncc(N(C)C(=O)C(C)CSC(C)=O)c1` (stereo not shown) [Example 16, methyl 5-(2-acetylthiomethyl-N-methyl-propionamido)-nicotinate], for which the IC50 in series [2] was 7e-07 M; in series [3] it was more than 1e-06 M. The “Latency Time X ± SE (sec)” value in series [4] (Met-Enk 50 μg/ic + compound 5 μg/ic) is recorded as 14,8 ± 1,1 sec.

Turning to `CC(CS)C(=O)N(C)c1cncc(C(=O)O)c1` (stereo not shown) [Example 17, 5-(2-mercaptomethyl-N-methyl-propionamido)-nicotinic acid], the IC50 is 1e-07 M in series [2] and more than 1e-06 M in series [3]. Moreover, the “Latency Time X ± SE (sec)” value in series [4] (setting [8]) is reported as 13,8 ± 1,4 sec.

On to `C[C@H](CSC(=O)c1ccccc1)C(=O)Nc1cncc(C(=O)O)c1` [Example 18a, S(-)-5-(2-benzoylthiomethyl-propionamido)-nicotinic acid], for which the IC50 in series [2] was 3e-07 M; in series [3], more than 1e-06 M. Moreover, in series [4] (setting [8]), the “Latency Time X ± SE (sec)” value was 13,1 ± 0,9 sec.

With `CC(CS)C(=O)Nc1ccc(C(=O)O)nc1` (stereo not shown) [Example 23, 5-(2-mercaptomethyl-propionamido)-picolinic acid], the IC50 is 2e-07 M in series [2] and more than 1e-06 M in series [3]. Moreover, the “Latency Time X ± SE (sec)” value in series [4] (setting [7]) was 26,1 ± 2,1 sec.

The molecule `COC(=O)c1ncccc1NC(=O)C(C)CSC(C)=O` (stereo not shown) [Example 24, methyl 3-(2-acetylthiomethyl-propionamido)-picolinate] gave an LD50 in series [5] of 390 mg/kg.

In series [5], `COC(=O)c1ncccc1NC(=O)C(C)CS` (stereo not shown) [Example 25, methyl 3-(2-mercaptomethyl-propionamido)-picolinate] yielded a median lethal dose (LD50) of 329 mg/kg.

As for `O=C(O)c1ccnc(NC(=O)C(CS)Cc2ccccc2)c1` (stereo not shown) [Example 28, 2-(2-mercaptomethyl-3-phenyl-propionamido)-isonicotinic acid], the IC50 was 1.8e-09 M in series [2] and more than 1e-06 M in series [3]. For the same molecule, the “Latency Time X ± SE (sec)” value in series [4] (setting [8]) is on record as 27,0 ± 1,6 sec.

`CC(CS)C(=O)Nc1cc(C(=O)O)ccn1` (stereo not shown) [Example 31, 2-(2-mercaptomethyl-propionamido)-isonicotinic acid]: the IC50 in series [2] was 5e-07 M; in series [3] it was more than 1e-06 M. Also, in series [4] (setting [6]), the “Latency Time X ± SE (sec)” value is on record as 15,4 ± 1,2 sec.

Turning to “Methionine-Enkephalin [Met--Enk, reference compound]”, the “Latency Time X ± SE (sec)” value in series [4] (Met-Enk alone 50 μg/ic) was 14,7 ± 1,3 sec.
